Assay results taken from patent publication US7977366B2, “Treating an inflammatory disorder or inhibiting respiratory burst in adherent neutrophils with chemical inhibitors of neutrophil activation” (Cornell Research Foundation, Inc., priority 2003, dated 2011).
Entries after “also recorded” stand apart in the source; their conditions may differ. Where two headings read alike, the source gives them in different places.

Assays:
human neutrophils [1] = assay: TNF triggered degranulation of neutrophils (lactoferrin and myeloperoxidase release, ELISA); type: cell-based; conditions: for myeloperoxidase (MPO) release triggered by TNF: marker of azurophil granule; for lactoferrin (LF) release triggered by TNF: marker of specific granule
Method: Respiratory burst was measured as described elsewhere (De la Harpe et al., “A Semi-Automated Micro-Assay for H2O2 Release by Human Blood Monocytes and Mouse Peritoneal Macrophages,” J Immunol Methods 78:323-336 (1985), which is hereby incorporated by reference in its entirety). Briefly, 96-well flat-bottomed plates (Primaria, Falcon) were coated with 50 μl/well of FBS in 5% CO2 at 37° C. for at least 1 h and washed three times with 0.9% saline. Neutrophils (1.5×10^4) were added to triplicate wells containing 100 μl of reaction mixture (2.4 nm scopoletin, 0.5 μg horseradish peroxidase (HRP), and 1 mM NaN3) and stimulated with either buffer control, TNF (PreproTech, London, UK) or phorbol myristate acetate (PMA), each at 100 ng/ml. The reduction of scopoletin by H2O2 was recorded every 15 min on a plate-reading fluorometer until H2O2 release reached plateau and the amount of H2O2 released calculated as described (De la Harpe et al., “A Semi-Automated Micro-Assay for H2O2 Release by Human Blood Monocytes and Mouse Peritoneal Macrophages,” J Immunol Methods 78:323-336 (1985), which is hereby incorporated by reference in its entirety). The supernatant from the H2O2 release assay with 1.5×10^4 neutrophils was used to measure degranulation using lactoferrin (LF) or myeloperoxidase (MPO) ELISA kit (Oxis International, Inc., Portland, Oreg.). Spontaneous cell death from the same supernatant was measured using Cytotoxicity Detection Kit (Roche Molecular Biochemicals, Nutley, N.J.). The total cell content of LF, MPO, and lactate dehydrogenase (LDH) was determined after lysing cells with 1% Triton X100. LDH is a cytosolic enzyme whose release indicates cell lysis, such that high release of LF or MPO in the face of low release of LDH is taken as a measure of degranulation.
To test whether any of these compounds has any role in degranulation, the release of lactoferrin (LF) (as a marker of specific granule) and myeloperoxidase (MPO, as a marker of azurophil granule) were measured in the supernatant. […] The effect of Comp I on LF release was inconclusive due to high background release of LF in non-stimulated cells.

human neutrophils [2] = assay: TNF-triggered H2O2 release (respiratory burst) by adherent human neutrophils; type: cell-based; conditions: for IC50: Homo sapiens, Neutrophil, TNF 100 ng/ml; for Concentration that consistently yielded over 95% inhibition on TNF triggered RB: empirically decided for each compound
Method: Contaminating erythrocytes were lysed by hypotonic shock for 45 seconds with 0.2% saline.
Briefly, 15,000 compounds were screened to identify specific inhibitors of TNF-triggered H2O2 release in human neutrophils. H2O2 release was measured as above except a few modifications to adapt to high throughput screening. […] Percent inhibition by each compound was calculated using the formula: […]
Briefly, 96-well flat-bottomed plates (Primaria, Falcon) were coated with 50 μl/well of FBS in 5% CO2 at 37° C. for at least 1 h and washed three times with 0.9% saline. Neutrophils (1.5×10^4) were added to triplicate wells containing 100 μl of reaction mixture (2.4 nm scopoletin, 0.5 μg horseradish peroxidase (HRP), and 1 mM NaN3) and stimulated with either buffer control, TNF (PreproTech, London, UK) or phorbol myristate acetate (PMA), each at 100 ng/ml. […] The supernatant from the H2O2 release assay with 1.5×10^4 neutrophils was used to measure degranulation using lactoferrin (LF) or myeloperoxidase (MPO) ELISA kit (Oxis International, Inc., Portland, Oreg.). Spontaneous cell death from the same supernatant was measured using Cytotoxicity Detection Kit (Roche Molecular Biochemicals, Nutley, N.J.). The total cell content of LF, MPO, and lactate dehydrogenase (LDH) was determined after lysing cells with 1% Triton X100. LDH is a cytosolic enzyme whose release indicates cell lysis, such that high release of LF or MPO in the face of low release of LDH is taken as a measure of degranulation.

[3] = 1.5 h, H2O2 release at 90 min, read-out: IC50, TNF triggered H2O2 release

Structure (SMILES) | myeloperoxidase (MPO) release triggered by TNF (human neutrophils [1]) | lactoferrin (LF) release triggered by TNF (human neutrophils [1]) | IC50 (human neutrophils [2]; [3]) [nM] | Concentration that consistently yielded over 95% inhibition on TNF triggered RB (human neutrophils [2]) [µM] | degranulation of neutrophils (general statement) (human neutrophils [1]) | effect on TNF triggered H2O2 release (respiratory burst) (human neutrophils [2]; result in words) | IC50 (human neutrophils [2]; range given with mixed units nM and μM, read-out: IC50, TNF triggered H2O2 release (very variable)) [nM]
Cc1nc(N/N=C/c2ccccc2O)c2c3c(sc2n1)CCCC3 [Comp I, 2-[(2-Methyl-5,6,7,8-tetrahydro-benzo[4,5]thieno [2,3-a]pyrimidin-4-yl)-hydrazonomethyl]-phenol] | almost complete inhibition | inconclusive | ~180 | 2 |  |  | 
O=C1CC(c2ccccc2)=NN1c1cccc(Cl)c1 [Comp II, 2-(3-Chloro-phenyl)-5-phenyl-2,4-dihydro-pyrazol-3-one] | very moderate inhibition | did not block | 1600 ± 400 | 5 | takes place normally; also recorded: sparing | inhibited | 
C(=N\Nc1ncnc2sc3c(c12)CCCC3)/c1cccnc1 [Comp III, N-Pyridin-3-ylmethylene-N-(5,6,7,8-tetrahydro-benzo[4,5] [2,3-a]pyrimidin-4-yl)-hydrazine] | almost complete inhibition | partially inhibited | 2500 ± 1500 | 5 |  |  | 
O=C(CSc1nc2ccccc2s1)N/N=C/c1cc([N+](=O)[O-])ccc1O [Comp IV, (Benzothiazol-2-ylsulfanyl)-acetic acid (2-hydroxy-5-nitro-benzylidene) -hydrazide] | almost complete inhibition | partially inhibited |  | 10 |  |  | 3 to 2000
